Reference: ChEMBL document CHEMBL3870330, “Exploring the anti-biofilm activity of cinnamic acid derivatives in Candida albicans” (2016)
≈ marks a conversion by molar mass, not a printed value.

What was measured:
Format in all cases: functional
Candida albicans [1] = assay: Antibiofilm activity against mature biofilm of Candida albicans ATCC 10231 after 24 hrs by XTT reduction assay
Candida albicans [2] = assay: Antibiofilm activity against Candida albicans ATCC 10231 after 24 hrs by XTT reduction assay
Candida albicans [3] = assay: Antifungal activity against planktonic cells of Candida albicans ATCC 10231 after 48 hrs by microdilution assay; conditions: ATCC 10231, 48 h

SMILES | MBIC50 (Candida albicans [1]) | MBIC50 (Candida albicans [2]) | MIC50 (Candida albicans [3]) [µg/mL]
O=C(/C=C/c1ccccc1)N1CCN(c2ccc([N+](=O)[O-])cc2)CC1 | >32 to 128 µg/mL | >128 µg/mL | 32 to 128 (≈ 94.8 to 379 µM)
O=C(O)/C=C/c1ccccc1 [CINNAMIC ACID] | >128 µg/mL | >128 µg/mL | > 128
OC(Cn1cncn1)(Cn1cncn1)c1ccc(F)cc1F [FLUCONAZOLE] | >128 µg/mL | 128 µg/mL | 0.5 (≈ 1.63 µM)
O=C(/C=C/c1ccccc1)OC(Cn1ccnc1)c1ccc(Cl)cc1Cl (stereo unspecified) | 8 to 64 µg/mL | 2 to 64 µg/mL | 2 to 16 (≈ 5.16 to 41.3 µM)
O=C(/C=C/c1ccccc1)OCc1ccc([N+](=O)[O-])o1 | 64 µg/mL | 16 to 64 µg/mL | 2 to 16 (≈ 7.32 to 58.6 µM)
O=C(/C=C/c1ccccc1)OC(Cn1cncn1)(Cn1cncn1)c1ccc(F)cc1F | >32 to 128 µg/mL | 4 to 128 µg/mL | 0.5 to 64 (≈ 1.15 to 147 µM)
Cc1ncc([N+](=O)[O-])n1CCOC(=O)/C=C/c1ccccc1 | >128 µg/mL | >=32 - 128 ug ml-1 | ≥ 128
O=C(/C=C/c1ccccc1)Nc1nc2ccc([N+](=O)[O-])cc2s1 | >=64 - 128 ug ml-1 | >=64 - 128 ug ml-1 | > 128
O=C(/C=C/c1ccccc1)OCc1ccco1 | >=128 ug ml-1 | >=16 - 128 ug ml-1 | 64 to 128 (≈ 280 to 561 µM)
O=C(/C=C/c1ccccc1)NCCc1c[nH]c2ccccc12 | >128 µg/mL | 8 to 128 µg/mL | > 128
O=C(/C=C/c1ccccc1)N1CCN(c2ncccc2[N+](=O)[O-])CC1 | >128 µg/mL | >128 µg/mL | > 128
O=C(/C=C/c1ccccc1)NCCCn1ccnc1 | >128 µg/mL | >128 µg/mL | > 128
